Assay results as given in patent US8101619B2, “Phenylpiperazine derivatives with a combination of partial dopamine-D2 receptor agonism and serotonin reuptake inhibition” (Solvay Pharmaceuticals B.V., priority 2004, dated 2012).
Structures can show the parent of a compound that is named as a salt.

Key:
[1] = target: T1, Human dopamine D2,L receptors (Homo sapiens, UniProt P14416); assay: Inhibition of forskolin-induced [3H]-cAMP accumulation in CHO-K1 cells; format: cell-based; conditions: cloned human dopamine D2,L receptors in CHO-K1 cells; full agonist ε=1, full antagonist ε=0
T1 construct: host or cells: CHO-K1
T1 sequence (P14416 whole entry): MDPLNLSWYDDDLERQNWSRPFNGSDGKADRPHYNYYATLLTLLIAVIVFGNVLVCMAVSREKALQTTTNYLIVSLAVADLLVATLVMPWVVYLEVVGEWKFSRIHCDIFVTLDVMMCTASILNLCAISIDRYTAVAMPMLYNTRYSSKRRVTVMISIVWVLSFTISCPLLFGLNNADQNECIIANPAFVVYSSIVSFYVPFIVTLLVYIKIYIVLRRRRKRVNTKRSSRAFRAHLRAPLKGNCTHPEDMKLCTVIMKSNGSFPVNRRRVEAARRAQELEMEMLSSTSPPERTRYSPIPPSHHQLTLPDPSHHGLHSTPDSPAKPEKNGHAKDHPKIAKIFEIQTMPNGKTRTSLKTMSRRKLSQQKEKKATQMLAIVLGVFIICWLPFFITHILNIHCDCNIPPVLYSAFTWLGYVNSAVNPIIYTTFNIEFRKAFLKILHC
Protocol: Inhibition of Forskolin-Induced [^3H]-cAMP Accumulation
The in vitro functional activity at dopamine-D2 receptors, including the intrinsic activity (ε) of the compounds of the invention was measured by their ability to inhibit forskolin-induced [^3H]-cAMP accumulation.
Human dopamine D2,L receptors were cloned in fibroblast cell line CHO-K1 cells and obtained from Dr. Grandy, Vollum Institute, Portland, Oreg., USA. CHO cells were grown in a Dulbecco's modified Eagle's medium (DMEM) culture medium, supplemented with 10% heat-inactivated fetal calf serum, 2 mM glutamine, 1 mM pyruvate, 5000 units/ml penicillin, 5000 μg/ml streptomycin and 200 μg/ml G-418 at 37° C. in 93% air/7% CO2. For incubation with test compounds, confluent cultures grown in 24 wells plates were used. Each condition or substance was routinely tested in quadruplicate. Cells were loaded with 1 μCi [^3H]-adenine in 0.5 ml medium/well. After 2 hours, cultures were washed with 0.5 ml PBS containing 1 mM of the phosphodiesterase inhibitor isobutylmethylxanthine (IBMX) and incubated for 20 min with 0.5 ml PBS containing 1 mM IBMX and forskolin with or without test compound. After aspiration the reaction was stopped with 1 ml trichloroacetic acid 5% (w/v). […] 0.8 ml Extract was passed over Dowex (50WX-4 200-400 mesh) and aluminumoxide columns, eluted with water and 0.1M imidazole (pH=7.5). Eluates were mixed with 7 ml Insta-gel and radioactivity was counted with a liquid scintillation counter. The conversion of [^3H]-ATP into [^3H]-cAMP was expressed as the ratio in percentage radioactivity in the cAMP fraction as compared to combined radioactivity in both cAMP and ATP fractions, and basal activity was subtracted to correct for spontaneous activity.
Test compounds were obtained as 10 mM stock solutions in 100% DMSO, and diluted in PBS/IBMX to final concentrations. Typically, compounds were used in concentrations that ranged from 10^−10M to 10^−5M. From quadruplicate data counts, the mean was taken as an estimate for drug-induced, receptor-mediated effects at specified second messenger accumulation, expressed as percentage of control values (forskolin-stimulated cAMP accumulation, subtracted by basal activity). By using the non-linear curve-fitting program INPLOT or the Excel-add-in XL-Fit, mean values were plotted against drug concentration (in molar) and a sigmoid curve (four-parameter logistic curve) was constructed. The maximal forskolin-induced stimulated conversion is taken as maximum value and the maximal inhibition (usually at drug concentrations 10^−6 M or 10^−5 M) as minimum and these values were fixed during the fitting process. Thus, concentrations of the compound, causing 50% of the maximally obtained inhibition of forskolin-induced cAMP accumulation (EC50), are averaged over several experiments and presented as mean pEC50±SEM. Antagonist potency is assessed by co-incubating cells with a fixed agonist concentration and specified antagonist concentrations. Curve fitting procedures are identical to those used for estimating EC50 values. Thus IC50 values, i.e. the concentration that is able to achieve 50% of maximal antagonism that can be achieved by this compound. IC50 values are corrected using a Cheng-Prussoff equation, correcting it for agonist concentration and EC50 values that is obtained in the same experiment. Thus, Kb=IC50/(1+[agonist]/EC50, agonist). The corresponding pA2 value is −log (Kb). Concentration-response curve fitting allows estimation of pEC50 values and of maximal achievable effect (intrinsic activity or efficacy (ε). A full receptor agonist has ε=1, a full receptor antagonist has ε=0, and a partial receptor agonist has an intermediate intrinsic activity.

dopamine-D2 receptors = target: T2, dopamine-D2 receptors (Rattus norvegicus, UniProt P61169); assay: In vitro affinity for dopamine-D2 receptors ([3H]-spiroperidol receptor binding assay); conditions: read-out: Dopamine-D2 binding pKi (converted)
T2 construct: labels dopamine receptors in rat pituitary and brain; from tissue
T2 sequence (P61169 whole entry): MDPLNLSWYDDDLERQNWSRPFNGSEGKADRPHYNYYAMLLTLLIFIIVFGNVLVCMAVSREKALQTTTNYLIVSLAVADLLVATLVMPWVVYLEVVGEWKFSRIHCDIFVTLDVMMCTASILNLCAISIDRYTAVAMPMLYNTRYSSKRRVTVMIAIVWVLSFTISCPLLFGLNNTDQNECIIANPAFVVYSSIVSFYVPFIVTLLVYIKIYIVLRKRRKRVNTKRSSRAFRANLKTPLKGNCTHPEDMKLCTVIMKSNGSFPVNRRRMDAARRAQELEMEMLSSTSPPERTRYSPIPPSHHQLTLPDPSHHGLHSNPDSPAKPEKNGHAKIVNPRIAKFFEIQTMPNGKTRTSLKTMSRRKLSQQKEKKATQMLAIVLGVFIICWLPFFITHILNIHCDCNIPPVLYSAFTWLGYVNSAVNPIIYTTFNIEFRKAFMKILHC
Protocol: In Vitro Affinity for Dopamine-D2 Receptors
Affinity of the compounds for dopamine-D2 receptors was determined using the receptor binding assay described by 1. Creese, R. Schneider and S. H. Snyder: “[^3H]-Spiroperidol labels dopamine receptors in rat pituitary and brain”, Eur. J. Pharmacol., 46, 377-381, 1977.

serotonin reuptake sites = target: T3, serotonin reuptake sites (Rattus norvegicus, UniProt P31652); assay: In vitro affinity for serotonin reuptake sites ([3H]-paroxetine binding assay); conditions: receptor binding; read-out: 5-HT reuptake binding pKi (converted)
T3 construct: from tissue
T3 sequence (P31652 whole entry): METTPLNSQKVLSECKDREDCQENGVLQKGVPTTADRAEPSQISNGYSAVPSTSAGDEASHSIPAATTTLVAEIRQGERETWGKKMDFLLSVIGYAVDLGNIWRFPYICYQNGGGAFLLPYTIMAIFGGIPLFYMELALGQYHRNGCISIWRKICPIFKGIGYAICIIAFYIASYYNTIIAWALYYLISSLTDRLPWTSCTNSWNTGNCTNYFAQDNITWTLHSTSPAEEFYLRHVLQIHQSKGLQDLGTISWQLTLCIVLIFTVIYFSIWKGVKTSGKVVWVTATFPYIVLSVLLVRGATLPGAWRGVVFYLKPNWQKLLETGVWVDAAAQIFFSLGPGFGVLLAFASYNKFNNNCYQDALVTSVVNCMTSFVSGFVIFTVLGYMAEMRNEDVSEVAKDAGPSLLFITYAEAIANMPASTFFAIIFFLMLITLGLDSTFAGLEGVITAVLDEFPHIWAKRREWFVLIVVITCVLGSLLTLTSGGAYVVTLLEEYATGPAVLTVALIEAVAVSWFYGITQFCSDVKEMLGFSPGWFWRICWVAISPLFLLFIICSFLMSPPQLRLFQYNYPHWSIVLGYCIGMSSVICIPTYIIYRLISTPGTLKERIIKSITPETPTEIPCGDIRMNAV
Protocol: In Vitro Affinity for Serotonin Reuptake Sites
Affinity of the compounds for serotonin reuptake sites was determined using the receptor binding assay described by E. Habert et al.: “Characterisation of [^3H]-paroxetine binding to rat cortical membranes”, Eur. J. Pharmacol., 118, 107-114, 1985.

Compound	melting point [°C]	Dopamine-D2 cAMP accum ε (intrinsic activity) [1]	Ki (dopamine-D2 receptors) [nM]	Ki (serotonin reuptake sites) [nM]
N#Cc1cccc(SCCCCN2CCN(c3cccc4[nH]c(=O)oc34)CC2)c1 (as salt: HCl) [compound 20]	168 to 170	–	–	–
N#Cc1cccc(OCCCN2CCN(c3cc(Cl)cc4[nH]c(=O)oc34)CC2)c1 (as salt: HCl) [compound 26]	251 to 254	–	–	–
CN(CCN1CCN(c2cccc3[nH]c(=O)oc23)CC1)c1cccc(C#N)c1 [compound 14]	–	0.57	15.8	1
O=c1[nH]c2cccc(N3CCN(CCCCOc4cccc(F)c4)CC3)c2o1 [compound 9]	153 to 155	0.64	6.31	100
CN(CCCN1CCN(c2cccc3[nH]c(=O)oc23)CC1)c1cccc(C#N)c1 [compound 15]	–	0.61	6.31	0.794
N#Cc1cccc(OCCCCN2CCN(c3cccc4[nH]c(=O)oc34)CC2)c1 [compound 6]	165 to 168	0.76	1	3.98
CN(CCCCN1CCN(c2cccc3c2oc(=O)n3C)CC1)c1cccc(C#N)c1 [compound 35]	87 to 89	0.55	100	0.631
N#Cc1cccc(OCCCN2CCN(c3cc(Cl)cc4[nH]c(=O)oc34)CC2)c1 [compound 26]	–	0.79	10	10
N#Cc1cccc(SCCCCN2CCN(c3cccc4[nH]c(=O)oc34)CC2)c1 [compound 20]	–	0.98	3.98	3.16
CN(CCCN1CCN(c2cccc3[nH]c(=O)oc23)CC1)c1cccc(C#N)c1 (as salt: HCl) [compound 15]	195 to 196	–	–	–
Cn1c(=O)oc2c(N3CCN(CCCCOc4cccc(F)c4)CC3)cccc21 [compound 31]	95 to 97	0.56	63.1	5.01
O=c1[nH]c2cccc(N3CCN(CCCOc4cccc(C(F)(F)F)c4)CC3)c2o1 [compound 17]	140 to 142	0.51	25.1	50.1
CN(CCN1CCN(c2cccc3[nH]c(=O)oc23)CC1)c1cccc(C#N)c1 (as salt: HCl) [compound 14]	230 to 231	–	–	–
COc1ccc(C#N)cc1OCCCN1CCN(c2cccc3[nH]c(=O)oc23)CC1 [compound 24]	189 to 190	0.86	1.26	12.6
